We go through one substance from publication PMC4266366 (Medical Science Monitor : International Medical Journal of …, 2014).

The subject of this series is BACE expression in transfected INR-32 human neuroblastoma cells. Put plainly: Selection of BACE1 siRNAs: inhibition of BACE expression in transfected cells. The conditions noted are these: BACE1 siRNA (75 pmoles) with Oligofectamin reagent. The class given is cell-based.

With “siRNA A5 3: siRNA A5 3 - 3′GCAAGGAGUACAACUAUGAUU 5′, 3′GGAGGGAGCAUGAUCAUUGUU5′ (chemistry not given here)”, the “inhibition of BACE expression” value is 86.5%.
